Laboratory results published in patent US11905231B1, “Solid forms, salts and polymorphs of anti-fibrotic compounds” (Certa Therapeutics Pty Ltd, priority 2023, dated 2024).
Counter-ions that a name gives are not always drawn. Like-named read-outs stand apart in the source and are kept apart here.

Columns and labels:
[1] = Stability of the ethanolamine salt under accelerated and long-term storage conditions; format: physicochemical; settings: for API (Purity_) / Total Impurity: HPLC
Description: The samples were assayed by HPLC at the start, after 1 week, and after 2 weeks at the indicated accelerated storage conditions, or after 36 days at room temperature storage. For HPLC analysis, the samples were diluted with 10 mL of TFA/DMSO/ACN (0.1/10/90, v/v/v) to ˜1 mg/mL and analyzed by HPLC.
The samples were also analyzed by XRPD at initial, 1 week, 2 weeks and 36 day time points.

physchem = settings: 37 °C, thermodynamic from solid; for solubility at 1 h: 1 h Solubility; for solubility at 24 h: 24 h Solubility
Description: (§1) The term “FaSSIF media” refers to Fasted State Simulated Intestinal Fluid media prepared using FaSSIF powder and buffer concentrate obtained from the commercial source Biorelevant (London, UK, biorelevant.com). The FaSSIF powder contains sodium taurocholate, lecithin, sodium chloride, monobasic sodium phosphate and sodium hydroxide. The FaSSIF media is prepared as described at https://biorelevant.com/learning_center/what-is-fassif/. Briefly the pH6.5 buffer containing 0.42 g of NaOH, 3.95 g of NaH2PO4·H2O and 6.19 g of NaCl was dissolved in 0.9 L of purified water and the pH of the solution was adjusted to 6.5 using sodium hydroxide 1N or hydrochloric acid 1N and made up to volume (1 L) with purified water at room temperature. Dissolve 2.24 g of the FaSSIF powder in 0.5 L of the pH6.5 buffer, stirring until the powder is completely dissolved, and then make up to volume (1 L) with buffer at room temperature.
(§2) The samples were stirred using a magnetic stirrer at 37° C. […] The samples were filtered via centrifugation (12,000 rpm, 5 min). The supernatant was diluted (2×) with HPLC grade solvent and analyzed by HPLC.
HPLC gradient was as follows:
(§3) The pH 1.2, pH 4.5, and pH 6.8 media were prepared as standard aqueous buffered solutions following USP <39>.
(§4) As used herein, the term “FaSSIF media” means Fasted Stated Simulated Intestinal Fluid media prepared according to the method known in the art.

[2] = Dynamic Vapor Sorption (DVS) hygroscopicity; settings: at 80% RH, 25° C., measured during 0% RH to 95% RH increase
Description: The change in water content is recited as a % change in mass of the starting sample and all such water sorption (DVS) values recited herein will be understood to explicitly include numerical values within a +/−0.2% variance.
The humidity is held constant at 30% RH until the mass change of the sample reaches equilibrium, as determined by the rate of change of weight being 0.01%/minute or less. The humidity is then changed to the next step value and the consequent mass change measured, and so on.
The hygroscopicity values recited herein refer to total water gain since the start of the experiment only and so may not necessarily be equivalent to the actual total water content of the sample.

[3] = 37° C.
Description: as §1, §2
HPLC gradient was as follows:
as §3, §4

[4] = Thermogravimetric Analysis (TGA) weight loss; format: physicochemical; settings: for Weight loss (TGA): when heated from about 25° C. to about 120° C. (text)
in vivo = settings: rat, in vivo, po, 20 mg/kg
Description: Bioavailability is determined by the equation AUC=F·D/CLT, wherein AUC is the area under the plot of plasma concentration, F is the absolute bioavailability, D is the dose, and CLT is the total clearance.
The rats received a single oral dose of 20 mg/kg body weight (b.w.). The doses were prepared as a 2.0 mg/mL suspension in a vehicle of 20 mM Na2HPO4 buffer containing 5% (v/v) DMSO, 0.4% (v/v) 1M NaOH and 0.4% (v/v) Tween 80 and a dose volume of 10 mL/kg b.w.
Pharmacokinetic analysis was performed on the average plasma concentration for each time point.

[5] = 40° C., 75% RH, open vial, 1 week
[6] = 40° C., 75% RH, open vial, 2 weeks
[7] = pH 1.2 aqueous buffer, pH 1.2, simulated gastric fluid, pH 1.2 medium
[8] = pH 4.5 aqueous buffer, pH 4.5 medium

## C#CCOc1ccc(/C=C/C(=O)Nc2ccccc2C(=O)O)cc1OC [Ethanolamine salt]
[1]; [5]
  Appearance: White
  API (Purity_): 99.73%
  Total Impurity: 0.27%
[1]; [6]
  Appearance: White
  API (Purity_): 99.72%
  Total Impurity: 0.28%
[1]; 60° C., open vial, 1 week
  Appearance: White
  API (Purity_): 99.73%
  Total Impurity: 0.27%
[1]; 60° C., open vial, 2 weeks
  Appearance: White
  API (Purity_): 99.71%
  Total Impurity: 0.29%
[1]; Initial
  Appearance: White
  API (Purity_): 99.75%
  Total Impurity: 0.26%
[1]; accelerated storage (1-2 weeks) or long-term storage (room temperature, 36 days), HPLC and XRPD
  Changes in impurity content or crystallinity: no significant changes
physchem; [7]
  solubility at 1 h: 8 µg/mL
  solubility at 24 h: 3 µg/mL
physchem; [8]
  solubility at 1 h: 28 µg/mL
  solubility at 24 h: 5 µg/mL
physchem; pH 6.8 aqueous buffer, pH 6.8 medium
  solubility at 24 h: 88 µg/mL
[2]
  Hygroscopicity by DVS: 0.49%
[2]; listed as ethanolamine
  Hygroscopicity by DVS: 0.49%
[2]; listed as ethanolamine salt
  Hygroscopicity by DVS: about 0.49%
[3]; FaSSIF (pH 7.5)
  1 h Solubility: >7990 µg/mL
  24 h Solubility: >7990 µg/mL
[3]; FaSSIF
  1 h Solubility: 238 µg/mL
  24 h Solubility: 263 µg/mL
[3]; FeSSIF (pH 7.8)
  1 h Solubility: >8020 µg/mL
  24 h Solubility: >8020 µg/mL
[3]; FeSSIF
  1 h Solubility: 12 µg/mL
  24 h Solubility: 25 µg/mL
[3]; pH 6.8 medium
  1 h Solubility: 116 µg/mL
[4]; from 0° C. to 120° C.
  Weight loss by TGA: 0.10% from 0 °C to
[4]; from r.t. to 120° C.
  Weight loss by TGA: 0.10% from r.t. to
[4]; from r.t. to 350° C. (or to decomposition if lower)
  Total weight loss by TGA: 0.10% total weight
[4]; listed as ethanolamine
  Weight loss (TGA): 0.10%
[4]; listed as ethanolamine salt
  Weight loss (TGA): about 0.1%
In vivo; Sprague-Dawley
  AUCExtr: 1.92%
  AUCInf: 405.006 µg·h/mL
  AUClast: 396.535 µg·h/mL
  tmax: 1.00 h
In vivo; Sprague-Dawley, 0.5 h
  Mean concentration (plasma): 37133 ng/mL
In vivo; Sprague-Dawley, 1 h
  Mean concentration (plasma): 52733 ng/mL
In vivo; Sprague-Dawley, 2 h
  Mean concentration (plasma): 40300 ng/mL
In vivo; Sprague-Dawley, 4 h
  Mean concentration (plasma): 25900 ng/mL
In vivo; Sprague-Dawley, 8 h
  Mean concentration (plasma): 18767 ng/mL
In vivo; Sprague-Dawley, 24 h
  Mean concentration (plasma): 1262 ng/mL
In vivo; Sprague-Dawley, t1/2
  half-life: 4.32 h
In vivo
  Plasma concentration at 24 h post dose compared to the other tested compounds: highest plasma concentrations
